Results published in patent US20110045982A1, “HERBICIDAL COMPOSITION” (NOF CORPORATION, priority 2009, published 2011).

Test system: Japanese white rabbits
Settings: hydrolysate of base compound, 50% in purified water, 0.1 mL instilled, three male rabbits; observed 1, 6, 12 and 24 hr
Method: Assuming that the base compound is hydrolyzed in the natural world, the biological reaction of hydrolysate was evaluated by eye irritancy. To be specific, the base compound (10 g) shown in Table 1 was added to 100 mL of water, and the mixture was adjusted to pH 10 with an aqueous sodium hydroxide solution. The mixture was placed in a flask, heated to 80° C., and stirred for 1 hr while adding an aqueous sodium hydroxide solution as appropriate every 10 min to maintain pH 10. The mixture was adjusted to pH 3.5 with an aqueous hydrochloric acid solution, and the mixture was washed 3 times with hexane to remove fatty acid. The solution was neutralized with an aqueous sodium hydroxide solution, evaporated and filtered to remove sodium chloride. The viscous liquid was diluted with purified water to a concentration of 50% and used as an eye irritancy measurement sample.
Using three male Japanese white rabbits per sample, the above-mentioned eye irritancy measurement sample (0.1 mL) was instilled into the unilateral intracapsular conjunctiva of each test animal, and the upper and lower eyelids were gently closed and maintained for about 1 sec. The other eye was used as control without treatment. After instillation, the cornea, iris, conjunctiva and the like were observed 1, 6, 12 and 24 hr later.

Compound	eye irritancy of hydrolysate
CCCCCCCCC(=O)OCCO [compound 4, ethylene glycol monopelargric acid ester, reference compound]	problematic
CCCCCCCCCCCC(=O)OCC(O)CO (stereo not drawn) [Ex. 7, Glycerol monolauric acid ester]	no problem
CCCCCCCC(=O)OCC(COC(=O)CCCCCCC)OC(=O)CCCCCCC [Ex. 1, Glycerol tricaprylic acid ester]	no problem
